Converted amounts (≈) assume the structure as drawn. Where two headings read alike, the source gives them in different places.
Legend:
[1] = system: Mycobacterium immunogenum (ATCC 700505); experiment: MBC test, transfer from MIC plates to fresh media; format: cell-based; conditions: M. immunogenum, no survivors after 2 days in fresh media
Protocol: (§1) Bacterial strains tested included Mycobacterium chelonae (ATCC 14472) and Mycobacterium immunogenum (ATCC 700505). Mycobacterial cultures were grown overnight at 30° C. (M. immunogenum) or 37° C. (M. chelonae), in a rotary shaking bath in Middlebrook […] with Middlebrook enrichment. A 1:20 dilution of the overnight culture was made into the appropriate test media and inoculated to give a final concentration of 10^6 to 10^7 CFU/ml.
(§2) MBC tests were conducted by transferring samples from the MIC test samples into fresh media and observing for growth of the culture. Growth was determined as above. In this test using Biomek 2000 Workstation, 10 μl samples taken from the 96-well MIC plates were placed in […] of fresh growth media to determine the number of surviving organisms for the same gradient of biocide concentrations. These plates were incubated and read in the same fashion as the MIC plates.

[2] = system: Mycobacterium chelonae (ATCC 14472); experiment: MBC test, transfer from MIC plates to fresh media; format: cell-based; conditions: M. chelonae, no survivors after 2 days in fresh media
Protocol: as §1, §2

[3] = Stability in buffered water at various pH and temperatures (HPLC); format: physicochemical
Protocol: Biocides were added to buffer solutions and stability was tested at 22° and 50° C. using HPLC to measure biocide concentration at 0 time, 21 days, 43 days, and 88-90 days. Biocide stability was determined in the following buffer solutions: pH2, 0.01M HCl; pH6, 0.1M KH2PO4; pH8, 0.025M borate; pH10, 0.025M borate; pH12, 0.05M Na2HPO4. Biocide concentrations tested were 100 ppm MI, 200 ppm BIT, 44 ppm CMI.

[4] = system: Pseudomonas diminuta #99; experiment: MIC at pH 7.1 or pH 9.0, half strength TSB; format: cell-based; conditions: Brevundimonas diminuta, 72 h, three days, read-out: Minimum Inhibitory Concentration
Protocol: Minimum inhibitory concentration (MIC) studies were conducted to determine the lowest level of biocide required to inhibit growth of bacteria and fungi. Tests were conducted in 96-well microtiter plates. Biocides were added to growth media in the plates and serially diluted to obtain a range of concentrations. Tests were conducted in one-half strength trypticase soy broth (TSB; adjusted to pH 7.1 or pH 9.0). Bacteria and fungi were added to samples at 10^6 colony forming units per ml and incubated at 30° C. for three days. MIC values were determined visually on a growth no-growth basis.

[5] = system: natural, resident populations of Mycobacterium; experiment: Eradication of mycobacteria in naturally contaminated in-use metalworking fluids; format: cell-based
Protocol: A comparative study was conducted evaluating six metalworking fluid biocides versus natural, resident populations of Mycobacterium from six in-use metalworking fluids. CMIT/MIT, CMIT/MIT/MCC, MIT, BIT, triazine, and PCMC microbicides were tested under controlled laboratory conditions to determine their efficacy at the maximum manufacturer's recommended dose rate (Table 2). The metalworking fluids were known to contain high levels of mycobacteria prior to dosing with biocides. Samples were then dosed with biocides, incubated with agitation at room temperature and viable mycobacteria counts determined after 48 hours by plating onto Middlebrook 7H10 medium, with Tween 80, glycerin, cyclohexamide, chloramphenicol, and gentamycin to suppress the growth of unwanted microorganisms.
The six metalworking fluid samples containing mycobacteria study from Example 7, were also tested using the same biocides with dosing at 50% of the maximum manufacturer's recommended rate (Table 2) under the same conditions. These metalworking fluids were known to contain high levels of mycobacteria prior to dosing with biocides. Samples were then dosed with biocides, incubated with agitation at room temperature and viable mycobacteria counts determined after 48 hours by plating onto Middlebrook 7H10 medium, with Tween 80, glycerin, cyclohexamide, chloramphenicol, and gentamycin to suppress the growth of unwanted microorganisms.

[6] = system: Mycobacterium immunogenum (ATCC 700505); experiment: High resolution MIC test, pure culture, 1/10x TSB; format: cell-based; conditions: M. immunogenum, 24 hours at 30° C.
Protocol: (§3) The lowest concentration of microbicide required to inhibit bacteria was determined by a high resolution MIC test. Varying amounts of each microbicide were added to media in a 96-well microtiter plate. The media used for the MIC tests was 10% Trypicase Soy Broth ( 1/10× TSB). […] serial dilutions were performed on a Biomek 2000 Workstation to obtain a range of closely spaced concentrations of microbicides. A cell suspension of stationary phase microorganisms, adjusted to provide 10^6 colony forming units (CFU)/mL in each well for bacteria was added to the microtiter plate. The microtiter plates were incubated for 24 hours at 30° C. for Mycobacterium immunogenum and 37° C. for Mycobacterium chelonae. The presence or absence of microbial growth was determined by measuring the turbidity in each well using a Thermomax microplate reader set at an absorbance of 650 nm. The lowest concentration of compound in which no growth was observed was considered the MIC value for the microbicide. The MIC value for each microbicide was determined from the average of four determinations for bacteria.
as §1

[7] = system: Mycobacterium chelonae (ATCC 14472); experiment: High resolution MIC test, pure culture, 1/10x TSB; format: cell-based; conditions: M. chelonae, 24 hours at 37° C.
Protocol: as §3, §1

Cn1sccc1=O [MI, 2-methyl-4-isothiazolin-3-one]
Minimum Biocidal Concentration [1]: 84 ppm active | Minimum Biocidal Concentration [2]: 40 ppm active | Percent Remaining at: pH 2 ([3]; 22° C., day 0): 100% | Percent Remaining at: pH 6 ([3]; 22° C., day 0): 100% | Percent Remaining at: pH 8 ([3]; 22° C., day 0): 100% | Percent Remaining at: pH 10 ([3]; 22° C., day 0): 100% | Percent Remaining at: pH 12 ([3]; 22° C., day 0): 100% | Percent Remaining at: pH 2 ([3]; 22° C., day 21): 104% | Percent Remaining at: pH 6 ([3]; 22° C., day 21): 100% | Percent Remaining at: pH 8 ([3]; 22° C., day 21): 100% | Percent Remaining at: pH 10 ([3]; 22° C., day 21): 100% | Percent Remaining at: pH 12 ([3]; 22° C., day 21): 98% | Percent Remaining at: pH 2 ([3]; 22° C., day 43): 98% | Percent Remaining at: pH 6 ([3]; 22° C., day 43): 94% | Percent Remaining at: pH 8 ([3]; 22° C., day 43): 95% | Percent Remaining at: pH 10 ([3]; 22° C., day 43): 89% | Percent Remaining at: pH 12 ([3]; 22° C., day 43): 93% | Percent Remaining at: pH 2 ([3]; 22° C., day 88): 100% | Percent Remaining at: pH 6 ([3]; 22° C., day 88): 100% | Percent Remaining at: pH 8 ([3]; 22° C., day 88): 100% | Percent Remaining at: pH 10 ([3]; 22° C., day 88): 100% | Percent Remaining at: pH 12 ([3]; 22° C., day 88): 100% | Percent Remaining at: pH 2 ([3]; 50° C., day 0): 100% | Percent Remaining at: pH 6 ([3]; 50° C., day 0): 100% | Percent Remaining at: pH 8 ([3]; 50° C., day 0): 100% | Percent Remaining at: pH 10 ([3]; 50° C., day 0): 100% | Percent Remaining at: pH 12 ([3]; 50° C., day 0): 100% | Percent Remaining at: pH 2 ([3]; 50° C., day 21): 100% | Percent Remaining at: pH 6 ([3]; 50° C., day 21): 98% | Percent Remaining at: pH 8 ([3]; 50° C., day 21): 100% | Percent Remaining at: pH 10 ([3]; 50° C., day 21): 98% | Percent Remaining at: pH 12 ([3]; 50° C., day 21): 90% | Percent Remaining at: pH 2 ([3]; 50° C., day 43): 97% | Percent Remaining at: pH 6 ([3]; 50° C., day 43): 93% | Percent Remaining at: pH 8 ([3]; 50° C., day 43): 95% | Percent Remaining at: pH 10 ([3]; 50° C., day 43): 93% | Percent Remaining at: pH 12 ([3]; 50° C., day 43): 78% | Percent Remaining at: pH 2 ([3]; 50° C., day 90): 100% | Percent Remaining at: pH 6 ([3]; 50° C., day 90): 100% | Percent Remaining at: pH 8 ([3]; 50° C., day 90): 100% | Percent Remaining at: pH 10 ([3]; 50° C., day 90): 100% | Percent Remaining at: pH 12 ([3]; 50° C., day 90): 76% | MIC ([4]; pH 7.1, 30° C.): 12.5 µg/mL (≈ 109 µM) | MIC ([4]; pH 9.0, 30° C.): 6.3 µg/mL (≈ 54.7 µM) | Log Reduction in Mycobacterial Counts versus Control (no biocide) ([5]; Fluid 1, 48 hours, 50% of recommended maximum dose): 3.48 log | Log Reduction in Mycobacterial Counts versus Control (no biocide) ([5]; Fluid 1, 48 hours, 100% of recommended maximum dose): 5.88 log | Log Reduction in Mycobacterial Counts versus Control (no biocide) ([5]; Fluid 2, 48 hours, 50% of recommended maximum dose): 3.80 log | Log Reduction in Mycobacterial Counts versus Control (no biocide) ([5]; Fluid 2, 48 hours, 100% of recommended maximum dose): 5.00 log | Log Reduction in Mycobacterial Counts versus Control (no biocide) ([5]; Fluid 3, 48 hours, 50% of recommended maximum dose): 0.00 log | Log Reduction in Mycobacterial Counts versus Control (no biocide) ([5]; Fluid 3, 48 hours, 100% of recommended maximum dose): 2.00 log | Log Reduction in Mycobacterial Counts versus Control (no biocide) ([5]; Fluid 4, 48 hours, 50% of recommended maximum dose): 2.00 log | Log Reduction in Mycobacterial Counts versus Control (no biocide) ([5]; Fluid 4, 48 hours, 100% of recommended maximum dose): 3.64 log | Log Reduction in Mycobacterial Counts versus Control (no biocide) ([5]; Fluid 5, 48 hours, 50% of recommended maximum dose): 0.06 log | Log Reduction in Mycobacterial Counts versus Control (no biocide) ([5]; Fluid 5, 48 hours, 100% of recommended maximum dose): 1.90 log | Log Reduction in Mycobacterial Counts versus Control (no biocide) ([5]; Fluid 6, 48 hours, 50% of recommended maximum dose): 1.78 log | Log Reduction in Mycobacterial Counts versus Control (no biocide) ([5]; Fluid 6, 48 hours, 100% of recommended maximum dose): 3.88 log | kill (minimum degree of efficacy) ([5]; in all six samples of contaminated fluids, maximum recommended dose): > 90% | Minimum Inhibitory Concentration [6]: 50 ppm active | Minimum Inhibitory Concentration [7]: 15 ppm active

From US7699995B2, “Water treatment method” (priority 2006, dated 2010)
